Data published in patent publication US9925198B2, “Pharmaceutical composition for preventing or treating hearing loss, comprising carbenoxolone or its pharmaceutically acceptable salts as effective compound” (AJOU UNIVERSITY INDUSTRY-ACADEMIC COOPERATION FOUNDATION, priority 2015, dated 2018).
Several values for one entry are separate records, joined by “and”; a condition that tells them apart may be missing. Equal values may be shown once. Entries after “also recorded” stand apart in the source; their conditions may differ. Read-outs that look alike come from different tables or passages of the source.

What was measured:
[1] = tested on: ototoxic hearing loss induced by cisplatin; test: Auditory brainstem response (ABR) test, hearing threshold in rats with cisplatin-induced ototoxic hearing loss; format: in vivo, SD-rat; conditions: for hearing threshold (ABR) at 16 kHz / hearing threshold (ABR) at 32 kHz: measured 5 days after; for hearing threshold (ABR) at 16 kHz: tone burst 16 kHz; for hearing threshold (ABR) at 32 kHz: tone burst 32 kHz
Protocol: Auditory acuity was evaluated by performing an auditory brainstem response (ABR) test on the SD-rat before and after the drug administration. The ABR test was determines the minimum stimuli intensity (dB) that evokes the waveform of wave V by providing tone burst of 16 kHz and 32 kHz using a TDT ABR device as a hearing threshold, and the auditory acuities were measured 1 day before the drug administration and 5 days after the drug administration.

[2] = tested on: auditory sensory hair cell stereocilia; test: Phalloidin staining of auditory sensory hair cell stereocilia in cochlea; format: in vivo, SD-rat; conditions: basal turn (32 kHz) and middle turn (16 kHz)
Protocol: Phalloidin staining was performed on auditory sensory hair cell stereocilia markers of the SD-rats administered with drugs by using the method described above to confirm degrees of loss or damage on auditory cells at sites of the basal turn (32 kHz) and the middle turn (16 kHz).

[3] = tested on: auditory outer hair cells; test: Scanning electron microscope (SEM) analysis of cochlea, auditory outer hair cell damage; format: in vivo, SD-rat; conditions: basal turn (32 kHz) and middle turn (16 kHz)
Description: Also, degrees of loss and damage on auditory cells at the basal turn (32 kHz) and the middle turn (16 kHz) in cochlea were confirmed by using a scanning electron microscope (SEM) to analyze the shape of cochlea.

cisplatin-takers = conditions: cited from earlier work
[4] = cisplatin 16 mg/kg i.p. once + 18α-GA 100 mg/kg daily 2 days before and after cisplatin
[5] = cisplatin 16 mg/kg + 18α-GA 100 mg/kg
[6] = cisplatin alone 16 mg/kg, compared to control group
[7] = cisplatin 16 mg/kg i.p. once + carbenoxolone sodium 50 mg/kg daily 2 days before and after cisplatin
[8] = cisplatin 16 mg/kg + carbenoxolone sodium 50 mg/kg, vs cisplatin alone

Structure (SMILES): CC1(C)[C@@H](O)CC[C@]2(C)[C@H]3C(=O)C=C4[C@H]5C[C@@](C)(C(=O)O)CC[C@]5(C)CC[C@@]4(C)[C@]3(C)CC[C@@H]12 [18α-GA, 18α-glycyrrhetinic acid]
- hearing thresholds compared with the cisplatin-treated group ([1]; cisplatin 16 mg/kg + 18α-GA 100 mg/kg, 16 kHz and 32 kHz): no significant difference; also recorded: did not show significant difference
- hearing threshold (ABR) at 16 kHz [1, 4]: 49.3±4.8 dB and 46.2±4.1 dB
- hearing threshold (ABR) at 32 kHz [1, 4]: 46.2±4.1 dB
- damage prevention effect (phalloidin staining, FIG. 3) [2, 5]: not exhibited
- damage prevention effect (SEM, FIG. 4) [3, 5]: not confirmed

Structure (SMILES): N.N.[Cl][Pt][Cl] [cisplatin]
- auditory impairment occurrence frequency (cisplatin-takers; children): about 50%
- auditory impairment occurrence frequency (cisplatin-takers; cisplatin-takers): about 30%
- stereocilia damage (phalloidin staining, FIG. 3) [2, 6]: a number of stereocilia damages were observed
- auditory outer hair cell damage (SEM, FIG. 4) [3, 6]: damages on auditory outer hair cells were observed in numbers; also recorded: a number of auditory outer hair cell damages were observed

Structure (SMILES): CC1(C)[C@@H](OC(=O)CCC(=O)O)CC[C@]2(C)[C@H]3C(=O)C=C4[C@@H]5C[C@@](C)(C(=O)O)CC[C@]5(C)CC[C@@]4(C)[C@]3(C)CC[C@@H]12 [carbenoxolone sodium]
- hearing threshold (ABR) at 16 kHz [1, 7]: 26.3±7.5 dB
- hearing threshold (ABR) at 32 kHz [1, 7]: 28.8±4.8 dB
- preservation of outer hair cells (phalloidin staining, FIG. 3) [2, 8]: significantly preserved
- preservation of outer hair cells (SEM, FIG. 4) [3, 8]: significantly preserved
